Experimental data taken from patent US12077503B2, “Substituted cyclic amides and their use as herbicides” (FMC CORPORATION, priority 2015, dated 2024).

Legend:
Type in all cases: in vivo
[1] = test system: velvetleaf (Abutilon theophrasti); assay: Test G Post-Emergence Protocol; details: Abutilon theophrasti, post-emergence, 312 h; for pest or weed control at 15.625 g/ha: 15.625 g ai/ha, evaluated after 13 days (100=total damage to plant; 0=no damage to plant), read-out: Velvetleaf damage rating; for pest or weed control at 62.5 g/ha: 62.5 g ai/ha, read-out: Velvetleaf damage rating (100=total damage to plant; 0=no damage to plant); for pest or weed control at 62.5 g/ha / pest or weed control at 250 g/ha: evaluated after 13 days; for pest or weed control at 250 g/ha: 250 g ai/ha, read-out: damage to plant, Velvetleaf (100=total damage to plant; 0=no damage to plant)
Outline: (§1)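 Eight days post-sowing, plants received a spray of test compound (acetone/water 50:50, 0.5% Tween 20) at 15.625, 62.5 or 250 g/ha. Glasshouse regime thereafter: 24/16 °C, 14 h light, 65% humidity. Assessment after 13 days on a 0–100 damage scale.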

[2] = test system: redroot pigweed (Amaranthus retroflexus); assay: Test G Post-Emergence Protocol; details: Amaranthus retroflexus, post-emergence, 312 h; for pest or weed control at 15.625 g/ha: 15.625 g ai/ha, evaluated after 13 days (100=total damage to plant; 0=no damage to plant), read-out: Pigweed, Redroot damage rating; for pest or weed control at 62.5 g/ha: 62.5 g ai/ha, read-out: Pigweed, Redroot damage rating (100=total damage to plant; 0=no damage to plant); for pest or weed control at 62.5 g/ha / pest or weed control at 250 g/ha: evaluated after 13 days; for pest or weed control at 250 g/ha: 250 g ai/ha, read-out: damage to plant, Pigweed, Redroot (100=total damage to plant; 0=no damage to plant)
Outline: as §1

[3] = test system: ivy-leaved morning glory (Ipomoea hederacea); assay: Test G Post-Emergence Protocol; details: Ipomoea, post-emergence, 312 h; for pest or weed control at 15.625 g/ha: 15.625 g ai/ha, evaluated after 13 days (100=total damage to plant; 0=no damage to plant), read-out: Morningglory, Ivy-leaved damage rating; for pest or weed control at 62.5 g/ha: 62.5 g ai/ha, read-out: Morningglory, Ivy-leaved damage rating (100=total damage to plant; 0=no damage to plant); for pest or weed control at 62.5 g/ha / pest or weed control at 250 g/ha: evaluated after 13 days; for pest or weed control at 250 g/ha: 250 g ai/ha, read-out: damage to plant, Morningglory, Ivy-leaved (100=total damage to plant; 0=no damage to plant)
Outline: as §1

[4] = test system: corn (Zea mays); assay: Test G Post-Emergence Protocol; details: Zea mays, post-emergence, 312 h; for plant injury at 15.625 g/ha: 15.625 g ai/ha, evaluated after 13 days (100=total damage to plant; 0=no damage to plant), read-out: Corn damage rating; for plant injury at 62.5 g/ha: 62.5 g ai/ha, read-out: Corn damage rating (100=total damage to plant; 0=no damage to plant); for plant injury at 62.5 g/ha / plant injury at 250 g/ha: evaluated after 13 days; for plant injury at 250 g/ha: 250 g ai/ha, read-out: damage to plant, Corn (100=total damage to plant; 0=no damage to plant)
Outline: as §1

[5] = test system: giant foxtail (Setaria faberi); assay: Test G Post-Emergence Protocol; details: Setaria faberi, post-emergence, 312 h; for pest or weed control at 15.625 g/ha: 15.625 g ai/ha, evaluated after 13 days (100=total damage to plant; 0=no damage to plant), read-out: Foxtail, Giant damage rating; for pest or weed control at 62.5 g/ha: 62.5 g ai/ha, read-out: Foxtail, Giant damage rating (100=total damage to plant; 0=no damage to plant); for pest or weed control at 62.5 g/ha / pest or weed control at 250 g/ha: evaluated after 13 days; for pest or weed control at 250 g/ha: 250 g ai/ha, read-out: damage to plant, Foxtail, Giant (100=total damage to plant; 0=no damage to plant)
Outline: as §1

[6] = test system: barnyardgrass (Echinochloa crus-galli); assay: Test G Post-Emergence Protocol; details: Echinochloa crus-galli, post-emergence, 312 h; for pest or weed control at 15.625 g/ha: 15.625 g ai/ha, evaluated after 13 days (100=total damage to plant; 0=no damage to plant), read-out: Barnyardgrass damage rating; for pest or weed control at 62.5 g/ha: 62.5 g ai/ha, read-out: Barnyardgrass damage rating (100=total damage to plant; 0=no damage to plant); for pest or weed control at 62.5 g/ha / pest or weed control at 250 g/ha: evaluated after 13 days; for pest or weed control at 250 g/ha: 250 g ai/ha, read-out: damage to plant, Barnyardgrass (100=total damage to plant; 0=no damage to plant)
Outline: as §1

[7] = test system: velvetleaf (Abutilon theophrasti); assay: Test G Pre-Emergence Protocol; details: Abutilon theophrasti, pre-emergence, 312 h, evaluated after 13 days; for pest or weed control at 15.625 g/ha: 15.625 g ai/ha; for pest or weed control at 15.625 g/ha / pest or weed control at 250 g/ha: read-out: Velvetleaf damage rating (100=total damage to plant; 0=no damage to plant); for pest or weed control at 62.5 g/ha: 62.5 g ai/ha, 100=total damage to plant, 0=no damage to plant, read-out: plant damage rating, Velvetleaf; for pest or weed control at 250 g/ha: 250 g ai/ha
Outline: (§2)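 Herbicidal effect was rated 13 days post-application on a scale where 100 equals total damage. Spraying took place the day after sowing, using 15.625, 62.5 or 250 g/ha of compound in a 50:50 acetone/water solution with 0.5% Tween 20.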

[8] = test system: redroot pigweed (Amaranthus retroflexus); assay: Test G Pre-Emergence Protocol; details: Amaranthus retroflexus, pre-emergence, 312 h, evaluated after 13 days; for pest or weed control at 15.625 g/ha: 15.625 g ai/ha; for pest or weed control at 15.625 g/ha / pest or weed control at 250 g/ha: read-out: Pigweed, Redroot damage rating (100=total damage to plant; 0=no damage to plant); for pest or weed control at 62.5 g/ha: 62.5 g ai/ha, 100=total damage to plant, 0=no damage to plant, read-out: plant damage rating, Pigweed, Redroot; for pest or weed control at 250 g/ha: 250 g ai/ha
Outline: as §2

[9] = test system: ivy-leaved morning glory (Ipomoea hederacea); assay: Test G Pre-Emergence Protocol; details: Ipomoea, pre-emergence, 312 h, evaluated after 13 days; for pest or weed control at 15.625 g/ha: 15.625 g ai/ha, read-out: Morning-glory, Ivy-leaved damage rating (100=total damage to plant; 0=no damage to plant); for pest or weed control at 62.5 g/ha: 62.5 g ai/ha, 100=total damage to plant, 0=no damage to plant, read-out: plant damage rating, Morningglory, Ivy-leaved; for pest or weed control at 250 g/ha: 250 g ai/ha, read-out: Morningglory, Ivy-leaved damage rating (100=total damage to plant; 0=no damage to plant)
Outline: as §2

[10] = test system: corn (Zea mays); assay: Test G Pre-Emergence Protocol; details: Zea mays, pre-emergence, 312 h, evaluated after 13 days; for plant injury at 15.625 g/ha: 15.625 g ai/ha; for plant injury at 15.625 g/ha / plant injury at 250 g/ha: read-out: Corn damage rating (100=total damage to plant; 0=no damage to plant); for plant injury at 62.5 g/ha: 62.5 g ai/ha, 100=total damage to plant, 0=no damage to plant, read-out: plant damage rating, Corn; for plant injury at 250 g/ha: 250 g ai/ha
Outline: as §2

[11] = test system: giant foxtail (Setaria faberi); assay: Test G Pre-Emergence Protocol; details: Setaria faberi, pre-emergence, 312 h, evaluated after 13 days; for pest or weed control at 15.625 g/ha: 15.625 g ai/ha; for pest or weed control at 15.625 g/ha / pest or weed control at 250 g/ha: read-out: Foxtail, Giant damage rating (100=total damage to plant; 0=no damage to plant); for pest or weed control at 62.5 g/ha: 62.5 g ai/ha, 100=total damage to plant, 0=no damage to plant, read-out: plant damage rating, Foxtail, Giant; for pest or weed control at 250 g/ha: 250 g ai/ha
Outline: as §2

[12] = test system: barnyardgrass (Echinochloa crus-galli); assay: Test G Pre-Emergence Protocol; details: Echinochloa crus-galli, pre-emergence, 312 h, evaluated after 13 days; for pest or weed control at 15.625 g/ha: 15.625 g ai/ha, read-out: Barnyard grass damage rating (100=total damage to plant; 0=no damage to plant); for pest or weed control at 62.5 g/ha: 62.5 g ai/ha, 100=total damage to plant, 0=no damage to plant, read-out: plant damage rating, Barnyardgrass; for pest or weed control at 250 g/ha: 250 g ai/ha, read-out: Barnyardgrass damage rating (100=total damage to plant; 0=no damage to plant)
Outline: as §2

SMILES	pest or weed control at 15.625 g/ha [1] [%]	pest or weed control at 62.5 g/ha [1] [%]	pest or weed control at 250 g/ha [1] [%]	pest or weed control at 15.625 g/ha [2] [%]	pest or weed control at 62.5 g/ha [2] [%]	pest or weed control at 250 g/ha [2] [%]	pest or weed control at 15.625 g/ha [3] [%]	pest or weed control at 62.5 g/ha [3] [%]	pest or weed control at 250 g/ha [3] [%]	plant injury at 15.625 g/ha [4] [%]	plant injury at 62.5 g/ha [4] [%]	plant injury at 250 g/ha [4] [%]	pest or weed control at 15.625 g/ha [5] [%]	pest or weed control at 62.5 g/ha [5] [%]	pest or weed control at 250 g/ha [5] [%]	pest or weed control at 15.625 g/ha [6] [%]	pest or weed control at 62.5 g/ha [6] [%]	pest or weed control at 250 g/ha [6] [%]	pest or weed control at 15.625 g/ha [7] [%]	pest or weed control at 62.5 g/ha [7] [%]	further results
CN1C[C@H](c2ccc(C(F)(F)F)cc2)[C@@H](C(=O)Nc2ccc(F)cc2S(C)(=O)=O)C1=O (racemic) [Compound 1483]	10	10	30	40	30	60	0	0	0	20	30	50	30	60	70	30	40	70	0	0	pest or weed control at 250 g/ha [7]: 0%; pest or weed control at 15.625 g/ha [8]: 20%; pest or weed control at 62.5 g/ha [8]: 40%; pest or weed control at 250 g/ha [8]: 80%; pest or weed control at 15.625 g/ha [9]: 0%; pest or weed control at 62.5 g/ha [9]: 0%; pest or weed control at 250 g/ha [9]: 0%; plant injury at 15.625 g/ha [10]: 30%; plant injury at 62.5 g/ha [10]: 20%; plant injury at 250 g/ha [10]: 40%; pest or weed control at 15.625 g/ha [11]: 30%; pest or weed control at 62.5 g/ha [11]: 60%; pest or weed control at 250 g/ha [11]: 80%; pest or weed control at 15.625 g/ha [12]: 40%; pest or weed control at 62.5 g/ha [12]: 40%; pest or weed control at 250 g/ha [12]: 70%
COc1c(Cl)ccc([C@H]2CN(C)C(=O)[C@@H]2C(=O)Nc2cccc(F)n2)c1F (racemic) [Compound 1477]	0	20	20	0	0	30	0	0	0	30	60	50	50	60	70	50	60	60	0	0	pest or weed control at 250 g/ha [7]: 0%; pest or weed control at 15.625 g/ha [8]: 0%; pest or weed control at 62.5 g/ha [8]: 0%; pest or weed control at 250 g/ha [8]: 0%; pest or weed control at 15.625 g/ha [9]: 0%; pest or weed control at 62.5 g/ha [9]: 0%; pest or weed control at 250 g/ha [9]: 0%; plant injury at 15.625 g/ha [10]: 20%; plant injury at 62.5 g/ha [10]: 40%; plant injury at 250 g/ha [10]: 50%; pest or weed control at 15.625 g/ha [11]: 60%; pest or weed control at 62.5 g/ha [11]: 80%; pest or weed control at 250 g/ha [11]: 90%; pest or weed control at 15.625 g/ha [12]: 50%; pest or weed control at 62.5 g/ha [12]: 60%; pest or weed control at 250 g/ha [12]: 80%
